# Laboratory results from ChEMBL document CHEMBL2016536, “New triazole derivatives as antifungal agents: synthesis via click reaction, in vitro evaluation and molecular docking studies” (2012).
# Tests used:
# Assay type in all cases: functional
# Trichophyton rubrum = assay: Antifungal activity against Trichophyton rubrum by microbroth dilution method
# Candida parapsilosis = assay: Antifungal activity against Candida parapsilosis by microbroth dilution method; conditions: Lodderomyces parapsilosis
# Aspergillus fumigatus = assay: Antifungal activity against Aspergillus fumigatus by microbroth dilution method
# Candida tropicalis = assay: Antifungal activity against Candida tropicalis by microbroth dilution method
# Cryptococcus neoformans = assay: Antifungal activity against Cryptococcus neoformans after 72 hrs by microbroth dilution method
# Candida albicans [1] = assay: Antifungal activity against Candida albicans Y0109 after 24 hrs by microbroth dilution method; conditions: Y0109, 24 h
# Candida albicans [2] = assay: Antifungal activity against Candida albicans SC5314 after 24 hrs by microbroth dilution method; conditions: SC5314, 24 h
# Kluyveromyces marxianus = assay: Antifungal activity against Candida kefyr by microbroth dilution method
SMILES,MIC80 (Trichophyton rubrum),MIC80 (Candida parapsilosis),MIC80 (Aspergillus fumigatus),MIC80 (Candida tropicalis),MIC80 (Cryptococcus neoformans),MIC80 (Candida albicans [1]),MIC80 (Candida albicans [2]),MIC80 (Kluyveromyces marxianus)
OC(Cc1cn(Cc2cccc(F)c2)nn1)(Cn1cncn1)c1ccc(F)cc1F (stereo not given),0.25 mg/L,0.125 mg/L,32 mg/L,0.25 mg/L,0.25 mg/L,0.0625 mg/L,< 0.125 mg/L,0.0625 mg/L
OC(Cc1cn(Cc2ccc(Cl)cc2)nn1)(Cn1cncn1)c1ccc(F)cc1F (stereo not given),0.125 mg/L,0.125 mg/L,4 mg/L,0.5 mg/L,0.25 mg/L,0.0625 mg/L,< 0.125 mg/L,0.0625 mg/L
OC(Cc1cn(Cc2cccc(Cl)c2)nn1)(Cn1cncn1)c1ccc(F)cc1F (stereo not given),0.125 mg/L,0.125 mg/L,8 mg/L,0.25 mg/L,0.5 mg/L,0.0625 mg/L,< 0.125 mg/L,0.0625 mg/L
OC(Cc1cn(Cc2ccc(Cl)c(Cl)c2)nn1)(Cn1cncn1)c1ccc(F)cc1F (stereo not given),0.25 mg/L,0.125 mg/L,32 mg/L,0.125 mg/L,1 mg/L,0.125 mg/L,0.25 mg/L,0.25 mg/L
N#Cc1cccc(Cn2cc(CC(O)(Cn3cncn3)c3ccc(F)cc3F)nn2)c1 (stereo not given),0.25 mg/L,0.25 mg/L,32 mg/L,0.125 mg/L,1 mg/L,0.0625 mg/L,0.125 mg/L,< 0.125 mg/L
OC(Cc1cn(Cc2ccccc2Br)nn1)(Cn1cncn1)c1ccc(F)cc1F (stereo not given),0.25 mg/L,0.0625 mg/L,4 mg/L,0.0625 mg/L,0.25 mg/L,0.0625 mg/L,0.0625 mg/L,0.0625 mg/L
C[C@@H](c1ncncc1F)[C@](O)(Cn1cncn1)c1ccc(F)cc1F [VORICONAZOLE],0.0156 mg/L,0.0039 mg/L,0.0156 mg/L,0.0039 mg/L,0.0039 mg/L,0.0625 mg/L,0.0625 mg/L,0.0625 mg/L
OC(Cc1cn(Cc2ccccc2F)nn1)(Cn1cncn1)c1ccc(F)cc1F (stereo not given),0.125 mg/L,0.125 mg/L,16 mg/L,0.0625 mg/L,0.125 mg/L,0.0625 mg/L,0.0625 mg/L,0.0625 mg/L

# Results, then the compound that gave them:
MIC80 (Trichophyton rubrum),MIC80 (Candida parapsilosis),MIC80 (Aspergillus fumigatus),MIC80 (Candida tropicalis),MIC80 (Cryptococcus neoformans),MIC80 (Candida albicans [1]),MIC80 (Candida albicans [2]),MIC80 (Kluyveromyces marxianus),SMILES
0.25 mg/L,0.25 mg/L,16 mg/L,0.125 mg/L,0.5 mg/L,0.0625 mg/L,< 0.125 mg/L,0.0625 mg/L,O=[N+]([O-])c1ccc(Cn2cc(CC(O)(Cn3cncn3)c3ccc(F)cc3F)nn2)cc1 (stereo not given)
0.25 mg/L,0.0625 mg/L,16 mg/L,0.0625 mg/L,0.25 mg/L,0.0625 mg/L,0.0625 mg/L,0.125 mg/L,OC(Cc1cn(Cc2ccccc2Cl)nn1)(Cn1cncn1)c1ccc(F)cc1F (stereo not given)
0.25 mg/L,0.25 mg/L,16 mg/L,0.125 mg/L,0.5 mg/L,0.0625 mg/L,0.125 mg/L,< 0.125 mg/L,N#Cc1ccccc1Cn1cc(CC(O)(Cn2cncn2)c2ccc(F)cc2F)nn1 (stereo not given)
0.0625 mg/L,0.0625 mg/L,2 mg/L,0.125 mg/L,0.125 mg/L,0.0156 mg/L,0.0625 mg/L,0.0039 mg/L,Cc1ccccc1Cn1cc(CC(O)(Cn2cncn2)c2ccc(F)cc2F)nn1 (stereo not given)
0.25 mg/L,< 0.25 mg/L,32 mg/L,0.125 mg/L,0.5 mg/L,0.0625 mg/L,< 0.125 mg/L,0.0625 mg/L,O=[N+]([O-])c1cccc(Cn2cc(CC(O)(Cn3cncn3)c3ccc(F)cc3F)nn2)c1 (stereo not given)
0.0625 mg/L,0.0625 mg/L,2 mg/L,0.125 mg/L,0.0625 mg/L,0.0156 mg/L,0.0625 mg/L,0.0625 mg/L,COc1ccc(OC)c(Cn2cc(CC(O)(Cn3cncn3)c3ccc(F)cc3F)nn2)c1 (stereo not given)
0.0625 mg/L,0.125 mg/L,4 mg/L,0.0625 mg/L,< 0.125 mg/L,0.0625 mg/L,0.0625 mg/L,0.0625 mg/L,CC(C)(C)c1ccc(Cn2cc(CC(O)(Cn3cncn3)c3ccc(F)cc3F)nn2)cc1 (stereo not given)
